For this assay, the system named is P388. The experiment in a line: Cytotoxicity against mouse P388 cells. The format is functional. The following applies: read-out: ED50 (the source's name).

Converted amounts (≈) assume the structure as drawn.

With `CC(=O)OCC(C)CCC[C@@H](C)[C@H]1CC[C@H]2[C@@H]3C[C@@H](O)[C@@]4(O)C[C@@H](O)CC[C@]4(C)[C@H]3CC[C@]12C` (some centres not stated), the EC50 was 2.4 µg/mL (≈ 5.01 µM). As for `CC(CO)CCC[C@@H](C)[C@H]1CC[C@H]2[C@@H]3C[C@@H](O)[C@@]4(O)C[C@@H](O)CC[C@]4(C)[C@H]3CC[C@]12C` (some centres not stated), the EC50 was found to be 1.3 µg/mL (≈ 2.98 µM).

The values above are taken from ChEMBL document CHEMBL1151680, “Cytotoxic amides from the octocoral Telesto riisei” (1996).
